The experiment has as its system patients with hypercholesterolemia at high CV risk not adequately controlled with rosuvastatin (10 mg or 20 mg). Description: Example 3: randomized, double-blind trial, lipid efficacy of mAb316P add-on to rosuvastatin vs EZE add-on or rosuvastatin dose doubling. The class given is in vivo, human. The note with it: for Proportion of Patients Reaching LDL-C goal (%) / LDL-C W24 % change from baseline, LS mean (SE): week 24; for Proportion of Patients Reaching LDL-C goal (%): LDL-C <70 mg/dL very high risk or <100 mg/dL high risk; for LDL-C W24 % change from baseline, LS mean (SE): ITT population, treatment arm as labelled. Here is the method:
The present study was a randomized, double-blind, active-comparator, parallel-group study in patients at high CV risk with non-FH or heFH who are not adequately controlled with rosuvastatin (10 mg or 20 mg) with or without other lipid-modifying therapy (LMT) (excluding EZE). The study design is illustrated in FIG. 2. Patients who entered the study were taking either rosuvastatin 10 mg or rosuvastatin 20 mg. The former patients were randomized to 1 of 3 treatment arms (arms 1 to 3); the latter patients were randomized to 1 of 3 treatment arms (arms 4 to 6). The treatment arms are as follows:
(B) a double-blind treatment period of 24 weeks. […] The patient/caregiver administered subsequent injections outside of the clinic according to the dosing schedule. […] The last dose of daily oral study drugs was administered at week 24.
The first injection of study drug was administered at the clinical site, as soon as possible after the patient was randomized into the study. The patient was monitored at the clinical site for at least 30 minutes following the first injection. The patient/caregiver administered subsequent injections outside of the clinic, according to the dosing schedule.
The primary efficacy endpoint was the percent change in calculated LDL-C from baseline to week 24, which is defined as: 100× (calculated LDL-C value at week 24−calculated LDL-C value at baseline)/calculated LDL-C value at baseline. The baseline calculated LDL-C value was the last LDL-C level obtained before the first double-blind study drug injection. The calculated LDL-C at week 24 was the LDL-C level obtained within the week 24 analysis window and during the main efficacy period. The main efficacy period is defined as the time from the first double-blind study drug injection up to 21 days after the last double-blind study drug injection or up to the upper limit of the week 24 analysis window, whichever comes first.
Total-C, HDL-C, TG, ApoB, ApoA-1, and Lp(a) were directly measured by a central laboratory. LDL-C was calculated using the Friedewald formula. […] Non-HDL-C was calculated by subtracting HDL-C from the total-C. Ratio ApoB/ApoA-1 was calculated.
For clarification, the ITT analysis is defined for patients in the ITT population and includes all endpoint assessments in an analysis window, regardless of study treatment dosing status (i.e. includes post-treatment assessments). The on-treatment analysis is defined for patients in the mITT population and includes all endpoint assessments from the first double-blind study drug (capsule or injection, whichever comes first) up to 21 days after the last double-blind study drug injection or 3 days after the last capsule intake, whichever comes first (i.e. includes assessments in the efficacy treatment period).

Setting [1] is: Week 4, baseline rosuvastatin 10 mg.
Setting [2] is: Week 8, baseline rosuvastatin 10 mg.
The mark [3] stands for this setting: Week 12, baseline rosuvastatin 10 mg.
Where [4] appears, read: Week 16, baseline rosuvastatin 10 mg.
[5] abbreviates: Week 24, baseline rosuvastatin 10 mg.
Where [6] appears, read: Week 4, baseline rosuvastatin 20 mg.
Where [7] appears, read: Week 8, baseline rosuvastatin 20 mg.
Setting [8] is: Week 12, baseline rosuvastatin 20 mg.
The mark [9] stands for this setting: Week 16, baseline rosuvastatin 20 mg.
[10] abbreviates: Week 24, baseline rosuvastatin 20 mg.

“mAb316P + RSV 10: treatment arm: mAb316P 75/150 mg Q2W + rosuvastatin 10 mg daily”: the “LDL-C W24 % change from baseline, LS mean (SE)” value is −50.6%. Besides, for the setting “Baseline Rosuvastatin 10 mg”, the “Proportion of Patients Reaching LDL-C goal (%)” value is 84.9%. Besides, the “Calculated LDL-C LS mean (SE) Value” (Baseline, baseline rosuvastatin 10 mg) is 107.8 (3.8) mg/dL. For the same substance, under setting [1], the “Calculated LDL-C LS mean (SE) Value” is 49.9 (3.6) mg/dL; the “Calculated LDL-C LS mean (SE), % Change from Baseline” value was −53.1 (3.2) %; the “Calculated LDL-C LS mean (SE), Change from Baseline” value is listed as −55.3 (3.6). Besides, under setting [2], the “Calculated LDL-C LS mean (SE) Value” is recorded as 49.4 (4.3) mg/dL; the “Calculated LDL-C LS mean (SE), % Change from Baseline” value is listed as −53.8 (3.8) %; the “Calculated LDL-C LS mean (SE), Change from Baseline” value was −55.9 (4.3). Under setting [3], the “Calculated LDL-C LS mean (SE) Value” is given as 53.9 (4.1) mg/dL; the “Calculated LDL-C LS mean (SE), % Change from Baseline” value is recorded as −49.6 (4.1) %; the “Calculated LDL-C LS mean (SE), Change from Baseline” value is on record as −51.3 (4.1). Also, under setting [4], the “Calculated LDL-C LS mean (SE) Value” was 49.2 (4.7) mg/dL; the “Calculated LDL-C LS mean (SE), % Change from Baseline” value was −54.1 (4.7) %; the “Calculated LDL-C LS mean (SE), Change from Baseline” value is −56.1 (4.7). Also, under setting [5], the “Calculated LDL-C LS mean (SE) Value” is 53.0 (4.3) mg/dL; the “Calculated LDL-C LS mean (SE), % Change from Baseline” value was −50.6 (4.2) %; the “Calculated LDL-C LS mean (SE), Change from Baseline” value is listed as −52.2 (4.3).
Consider “mAb316P + RSV 20: treatment arm: mAb316P 75/150 mg Q2W + rosuvastatin 20 mg daily”, for which the “LDL-C W24 % change from baseline, LS mean (SE)” value is on record as −36.3%. Moreover, for the setting “Baseline Rosuvastatin 20 mg”, the “Proportion of Patients Reaching LDL-C goal (%)” value is recorded as 66.7%. For the setting “Baseline, baseline rosuvastatin 20 mg”, the “Calculated LDL-C LS mean (SE) Value” is 118.1 (4.5) mg/dL. Under setting [6], the “Calculated LDL-C LS mean (SE) Value” is given as 69.9 (3.4) mg/dL; the “Calculated LDL-C LS mean (SE), % Change from Baseline” value is −39.6 (5.2) %; the “Calculated LDL-C LS mean (SE), Change from Baseline” value was −47.1 (3.4). Besides, under setting [7], the “Calculated LDL-C LS mean (SE) Value” is 67.4 (4.3) mg/dL; the “Calculated LDL-C LS mean (SE), % Change from Baseline” value is −40.6 (5.7) %; the “Calculated LDL-C LS mean (SE), Change from Baseline” value is on record as −49.6 (4.3). Under setting [8], the “Calculated LDL-C LS mean (SE) Value” was 76.1 (4.2) mg/dL; the “Calculated LDL-C LS mean (SE), % Change from Baseline” value is reported as −32.3 (5.2) %; the “Calculated LDL-C LS mean (SE), Change from Baseline” value was −41.0 (4.2). Also, under setting [9], the “Calculated LDL-C LS mean (SE) Value” is recorded as 64.5 (4.8) mg/dL; the “Calculated LDL-C LS mean (SE), % Change from Baseline” value was −44.8 (6.2) %; the “Calculated LDL-C LS mean (SE), Change from Baseline” value is −52.6 (4.8). Moreover, under setting [10], the “Calculated LDL-C LS mean (SE) Value” was 73.5 (5.8) mg/dL; the “Calculated LDL-C LS mean (SE), % Change from Baseline” value is recorded as −36.3 (7.1) %; the “Calculated LDL-C LS mean (SE), Change from Baseline” value is −43.5 (5.8).

Source of the values: patent publication US20150231236A1, “METHODS FOR TREATING PATIENTS WITH HYPERCHOLESTEROLEMIA THAT IS NOT ADEQUATELY CONTROLLED BY MODERATE-DOSE STATIN THERAPY” (Regeneron Pharmaceuticals, Inc., priority 2014, published 2015).
